Source: patent US12152019B2, “Arylalkyl pyrazole compounds as indoleamine 2,3-dioxygenase inhibitors” (Merck Sharp & Dohme LLC, priority 2018, dated 2024)

Tests used:
[1] = biological target: T1, IDO1 (Homo sapiens, UniProt P14902); experiment: IDO1 Human Whole Blood Assay; type: cell-based; conditions: LPS and IFNγ 100 ng/mL, overnight (18 h), kynurenine by LC/MS/MS
Method: IDO1 Human Whole Blood Assay Compounds to be tested were serially diluted in ten 3-fold steps in DMSO starting from 10 mM. 3 μL of compound dilutions or DMSO alone were then dispensed from the dilution plate into a polypropylene 96-well assay plate containing 97 μL of RPMI using an Echo 555 acoustic liquid handler (Labcyte). LPS and IFNγ was prepared in RPMI to a 10× of final conc. (1000 ng/mL), final concentration is 100 ng/mL. […] 240 μL of blood was transferred to each of the wells of a v-bottom 96 well plate. 30 μL of compound was transferred from intermediate dilution plate, and incubated for 15 min. 30 μL from stimulants was then transferred to blood and mixed thoroughly. Plate was covered with breathable membrane and incubated at 37° C. for overnight (18 h). […] Plasma was diluted with RPMI in 1:1 ratio and proteins were precipitated out with two volume of Acetonitrile. The plates were centrifuged at 4000×G for 60 min. 20 μL of supernatant was carefully transferred to a 384 well plate contain 40 μL of 0.1% formic acid in water and analyzed by LC/MS/MS. LC/MS/MS analyses were performed using Thermo Fisher's LX4-TSQ Quantum Ultra system. This system consists of four Agilent binary high-performance liquid chromatography (HPLC) pumps and a TSQ Quantum Ultra triple quadrupole MS/MS instrument. For each sample, 5 μL were injected onto an Atlantis T3 column (2.1 mm×150 mm, 3 μm particle size) from Waters. The mobile phase gradient pumped at 0.8 mL/min was used to elute the analytes from the column at 25° C. The elution started at 0% B increasing linearly to 25% B at 6.5 min, holding at 25% for 1 min, re-equilibrating to 10 min. Mobile phase A consisted of 0.1% formic acid in water. Mobile phase B consisted of 0.1% of formic acid in acetonitrile. Data was acquired in positive mode using a HESI interface. The operational parameters for the TSQ Quantum Ultra instrument were a spray voltage of 4000 V, capillary temperature of 380° C., vaporizer temperature 400° C., shealth gas 60 arbitrary units, Aux gas 20 arbitrary units, tube lens 85 and collision gas 1.2 mTorr. SRM chromatograms of kynurenine (Q1: 209.2>Q3:94.0) and internal standard (Q1: 215.3>Q3:98.2) were collected for 90 sec. The peak area was integrated by Xcalibur Quan software. […] Compounds were titrated and IC50's were calculated by 4 parameter sigmoidal curve fitting formula.

[2] = biological target: T1, IDO1; experiment: IDO1 Cellular Assay in HeLa Cells Stimulated with IFNγ; type: cell-based; conditions: HeLa Cell Potency, IC50 (nM)
[3] = read-out: Human Whole Blood Potency, IC50

T1 sequence (P14902 whole entry): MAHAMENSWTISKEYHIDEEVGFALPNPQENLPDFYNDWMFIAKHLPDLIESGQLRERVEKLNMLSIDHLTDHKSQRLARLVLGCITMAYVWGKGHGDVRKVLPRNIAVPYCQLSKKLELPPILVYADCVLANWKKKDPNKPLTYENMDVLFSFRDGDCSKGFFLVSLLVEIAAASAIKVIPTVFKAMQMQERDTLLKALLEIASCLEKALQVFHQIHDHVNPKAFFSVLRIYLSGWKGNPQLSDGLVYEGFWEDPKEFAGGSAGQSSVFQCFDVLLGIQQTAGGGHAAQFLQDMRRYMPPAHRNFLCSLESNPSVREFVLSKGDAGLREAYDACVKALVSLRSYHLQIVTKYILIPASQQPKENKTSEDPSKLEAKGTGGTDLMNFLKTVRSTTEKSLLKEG

SMILES	IC50 [1, 3] [nM]	IC50 ([1]; Human Whole Blood Potency, IC50 (nM)) [nM]	IC50 [2] [nM]
Cc1cccnc1O[C@H]1CC[C@@H](CCn2nc(C(=O)N3CC[C@H](O)[C@H](F)C3)c3c2C[C@H]2C[C@@H]32)CC1 [Example 83, [(3R,4S)-3-fluoro-4-hydroxypiperidin-1-yl] [(3bR,4aR)-1-(2-{cis-4-[(3-methylpyridin-2-yl)oxy]cyclohexyl}ethyl)-3b,4,4a,5-tetrahydro-1H-cyclopropa[3,4]cyclopenta [1,2-c]pyrazol-3-yl] methanone]	110		
Cc1cccnc1O[C@H]1CC[C@@H](CCn2nc(C(=O)N3CCC(O)CC3)c3c2C[C@H](C(F)F)CC3)CC1 [Example 87, [(6R)-6-(difluoromethyl)-1-(2-{cis-4-[(3-methylpyridin-2-yl)oxy]cyclohexyl}ethyl)-4,5,6,7-tetrahydro-1H-indazol-3-yl](4-hydroxypiperidin-1-yl)methanone]	736		
CC(=O)NC1CCN(C(=O)c2nn(CCN3CCN(c4cccc(C)c4C)CC3)c3c2[C@@H]2C[C@@H]2C3)CC1 [Example 100, N-(1-((3bR,4aR)-1-(2-(4-(2,3-dimethylphenyl)piperazin-1-yl)ethyl)-3b,4,4a,5-tetrahydro-1H-cyclopropa[3.4]cyclopenta[1,2-c]pyrazole-3-carbonyl)piperidin-4-yl)acetamide]	247		
CC(=O)NC1CCN(C(=O)c2nn(CCN3CCN(c4cccc(Cl)c4C)CC3)c3c2[C@@H]2C[C@@H]2C3)CC1 [Example 102, N-(1-((3bR,4aR)-1-(2-(4-(3-chloro-2-methylphenyl)piperazin-1-yl)ethyl)-3b,4,4a,5-tetrahydro-1H-cyclopropa[3,4]cyclopenta[1,2-c]pyrazole-3-carbonyl)piperidin-4-yl)acetamide]	261		
Cc1cccc(N2CCC(CCn3nc(C(=O)N4CCCC4)c4ccccc43)CC2)c1C [Example 103]		1030	15.4
